Consider 3 compounds from patent US20240216304A1, “CAPSAICIN AND TRPV1 MODULATOR COMPOSITIONS AND METHODS OF USE THEREOF” (The Children's Hospital of Philadelphia, priority 2020, published 2024).

The target in data set [1] is T1, TRPV1 (Homo sapiens, UniProt Q8NER1).
T1 construct: TRPV1 primary signaling in Human dorsal root ganglia (DRG) neurons in culture; endogenous in cells; host or cells: human dorsal root ganglia (DRG) neurons in culture
Put plainly: Capsaicinoid-induced TRPV1 signaling in DRG neurons, Fluo-8 calcium imaging. Type of data set: cell-based. To be noted: for treated neurons responding: agonist alone. The text has this: The aim of this study was to evaluate the effects of oleic acid on antagaonizing capsaicinoid-induced TRPV1 primary signaling in Human dorsal root ganglia (DRG) neurons in culture. Human DRG neurons were studied in a perfusion system using the calcium dye Fluo-8. Detection of intracellular calcium transients was accomplished by measuring the changes in the fluorescence intensity of the Fluo-8 calcium indicator upon excitation at 480 nm and recording of the emitted signal at 520 nm using a pcoEDGE sCMOS camera mounted on an inverted microscope (Olympus IX71). The following protocol was utilized to study the effects of the fatty acids on capsaicin and DHC-stimulated calcium currents.

For data set [2], the system named is Diabetic Mice. The experiment in a line: Capsaicinoid-fatty acid combinations on glucose tolerance and insulin sensitivity in diabetic mice. The class given is in vivo. To be noted: administered in the absence of OA (capsaicin 5 mg/kg, DHC 1 mg/kg); groups discontinued after first 72 hours (6 doses). The procedure: Eighty-four male db db mice (BKS. CG-Dock7m+/+LeprdbJ) are randomized at 8 weeks of age to produce seven equivalent groups (n=12/group) with respect to 4-hour fasting glucose and body weight. Treatment groups are as follow: Control (untreated); Capsaicin (5 mg/kg)+OA (615 mg/kg); DHC (1 mg/kg)+OA (615 mg/kg); capsaicin (10 mg/kg)+OA (615 mg/kg); DHC (10 mg/kg)+OA (615 mg/kg); capsaicin (5 mg/kg); DHC (1 mg/kg). Animals are administered the formulations via oral gavage in a volume of 5 mL/kg) twice daily for 28 days. Blood glucose is measured following a four hour fast on days 0, 7, 14, 21 and 28. On day 28, an oral glucose tolerance test (OGTT) is performed following a four-hour fast. Glucose (1.2 g/kg) is dosed at […], and glucose and insulin are measured at t=−60 minutes, 0, 15, 30, 60, 120, 180 and 240 minutes.

T1 sequence (Q8NER1 whole entry): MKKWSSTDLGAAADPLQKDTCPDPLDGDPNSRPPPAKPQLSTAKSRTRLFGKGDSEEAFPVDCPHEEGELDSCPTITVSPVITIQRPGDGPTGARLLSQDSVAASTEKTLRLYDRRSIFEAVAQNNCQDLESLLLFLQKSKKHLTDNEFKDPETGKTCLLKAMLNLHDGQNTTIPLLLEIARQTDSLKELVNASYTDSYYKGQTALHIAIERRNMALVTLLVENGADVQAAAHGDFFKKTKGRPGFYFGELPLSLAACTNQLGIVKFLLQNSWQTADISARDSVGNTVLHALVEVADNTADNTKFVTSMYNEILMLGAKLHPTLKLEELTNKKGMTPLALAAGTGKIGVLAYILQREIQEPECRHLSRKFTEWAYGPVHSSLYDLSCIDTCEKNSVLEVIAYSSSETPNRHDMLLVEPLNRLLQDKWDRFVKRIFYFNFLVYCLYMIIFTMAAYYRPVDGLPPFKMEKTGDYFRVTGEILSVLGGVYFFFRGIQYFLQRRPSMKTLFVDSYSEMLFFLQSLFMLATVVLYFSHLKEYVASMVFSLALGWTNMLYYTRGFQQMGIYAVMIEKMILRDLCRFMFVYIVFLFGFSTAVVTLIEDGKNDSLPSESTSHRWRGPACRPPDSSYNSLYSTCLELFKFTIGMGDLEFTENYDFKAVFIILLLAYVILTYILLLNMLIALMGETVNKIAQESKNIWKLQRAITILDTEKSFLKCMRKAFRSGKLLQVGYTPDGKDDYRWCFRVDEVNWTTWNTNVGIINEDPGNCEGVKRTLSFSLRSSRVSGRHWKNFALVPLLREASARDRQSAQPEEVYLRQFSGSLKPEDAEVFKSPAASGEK

With `CCCCCCCC/C=C\CCCCCCCC(=O)O` [oleic acid], the “maximal calcium (ΔF/F0) signal” value in data set [1] (DHC as agonist, with oleic acid administration) came to 2.81. The neurons responding was determined as 38% in data set [1] (DHC as agonist, with oleic acid administration (DHC alone 59%)) and 51% in data set [1] (capsaicin as agonist, with oleic acid administration (capsaicin alone 74%)).
Regarding `COc1cc(CNC(=O)CCCCCCC(C)C)ccc1O` [DHC, dihydrocapsaicin], the “maximal calcium (ΔF/F0) signal” value in data set [1] (DHC alone) was found to be 4.57. Besides, the treated neurons responding in data set [1] is 59%. In data set [2], the tolerability result is on record as “poorly tolerated”.
As to `COc1cc(CNC(=O)CCCC/C=C/C(C)C)ccc1O` [capsaicin, (6E)-N-[(4-Hydroxy-3-methoxyphenyl)methyl]-8-methylnon-6-enamide], the treated neurons responding in data set [1] is listed as 74%. Also, the tolerability result in data set [2] was “poorly tolerated”.
